Assay results: patent US20220348563A1, “KDM INHIBITORS AND USES THEREOF” (DANA-FARBER CANCER INSTITUTE, INC., priority 2019, published 2022)
pIC50: −log10 of the molar value.

Assays:
KDM3A = target: T1, KDM3A (Homo sapiens, UniProt Q9Y4C1); assay: KDM3 AlphaScreen assay (Table 2, ASSAY 9); type: biochemical; conditions: for pIC50: ASSAY 9
T1 sequence (Q9Y4C1 1-1321): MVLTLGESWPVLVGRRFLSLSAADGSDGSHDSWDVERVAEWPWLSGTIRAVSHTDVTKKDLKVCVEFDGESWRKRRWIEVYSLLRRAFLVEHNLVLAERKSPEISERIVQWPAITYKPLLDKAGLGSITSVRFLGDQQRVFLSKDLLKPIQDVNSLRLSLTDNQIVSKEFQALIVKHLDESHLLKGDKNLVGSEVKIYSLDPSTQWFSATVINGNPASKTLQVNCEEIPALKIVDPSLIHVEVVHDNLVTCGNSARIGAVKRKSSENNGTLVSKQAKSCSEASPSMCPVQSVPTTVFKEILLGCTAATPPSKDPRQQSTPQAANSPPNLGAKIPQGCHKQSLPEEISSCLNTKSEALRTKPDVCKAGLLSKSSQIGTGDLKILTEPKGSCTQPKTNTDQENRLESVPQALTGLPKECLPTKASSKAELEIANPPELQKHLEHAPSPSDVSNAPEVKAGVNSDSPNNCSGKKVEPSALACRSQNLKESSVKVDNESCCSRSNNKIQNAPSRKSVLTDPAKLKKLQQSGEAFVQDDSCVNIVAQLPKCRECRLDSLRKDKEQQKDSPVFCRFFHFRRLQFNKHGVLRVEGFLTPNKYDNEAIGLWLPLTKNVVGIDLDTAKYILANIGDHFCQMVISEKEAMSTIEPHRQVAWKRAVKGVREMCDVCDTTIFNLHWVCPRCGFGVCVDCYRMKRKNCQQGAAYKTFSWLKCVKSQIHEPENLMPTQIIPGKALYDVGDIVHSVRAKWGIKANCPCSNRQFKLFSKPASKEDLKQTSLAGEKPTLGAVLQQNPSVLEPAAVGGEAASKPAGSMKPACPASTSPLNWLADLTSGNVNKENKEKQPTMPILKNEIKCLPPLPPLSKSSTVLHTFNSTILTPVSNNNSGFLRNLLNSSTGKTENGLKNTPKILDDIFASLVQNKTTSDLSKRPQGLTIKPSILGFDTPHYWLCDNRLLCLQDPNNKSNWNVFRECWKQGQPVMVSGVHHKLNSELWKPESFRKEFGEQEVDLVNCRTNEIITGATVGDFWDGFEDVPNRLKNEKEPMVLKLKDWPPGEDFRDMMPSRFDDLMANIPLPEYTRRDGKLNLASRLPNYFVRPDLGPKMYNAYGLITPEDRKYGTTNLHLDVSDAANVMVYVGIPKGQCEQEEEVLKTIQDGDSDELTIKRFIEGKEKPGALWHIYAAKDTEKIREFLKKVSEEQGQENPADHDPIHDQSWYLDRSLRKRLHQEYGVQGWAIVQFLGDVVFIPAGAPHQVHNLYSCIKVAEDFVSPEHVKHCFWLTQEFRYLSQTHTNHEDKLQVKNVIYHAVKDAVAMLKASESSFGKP
Protocol: (§1) AlphaScreen assays were performed in 384-well plate format using white AlphaPlate™ (PerkinElmer®, USA), and transfer of pre-diluted compound (100 nL) was performed using a Janus® Workstation (PerkinElmer®, USA). All subsequent steps were carried out in assay buffer (50 mM 4-(2-hydroxyethyl)-1-piperazineethanesulfonic acid (HEPES), pH 7.5, 0.1% (wt/vol) bovine serum albumin (BSA) and 0.01% (vol/vol) Tween®20). In brief, 10 μL of assay buffer containing demethylase enzyme (2 nM Final) was pre-incubated for 15 min with dilutions of compound. The enzyme reaction was initiated by the addition of substrate (5 μL) consisting of L-ascorbic acid (100 μM Final), […] (OG) (5 μM Final), FAS (10 μM Final) and histone H3(1-21)K9Me3-GGK Biotin (100 nM Final). The enzyme reaction was allowed to proceed for 30 minutes and was stopped by the addition of 5 μL of assay buffer containing ethylenediaminetetraacetic acid (EDTA) (40 mM) and NaCl (1,200 mM). The final concentration of DMSO was 1%. Streptavidin donor beads (0.08 mg/ml) and protein-A-conjugated acceptor beads (0.08 mg/ml) were preincubated for 1 h with antibody to methyl mark (300 ng/mL Final), and the presence of histone H3 product methyl mark was detected using the preincubated AlphaScreen™ beads (5 μL). Detection was allowed to proceed for 2 h at room temperature, and the assay plates were read on the EnVision® 2104 plate reader. Data were normalized to the (no-enzyme) control, and the IC50 values were determined via nonlinear regression curve fit using GraphPad Prism 7.

KDM3B = KDM3B (Homo sapiens, UniProt Q7LBC6); assay: KDM3B AlphaScreen assay (Table 1); type: biochemical
Protocol: as §1, with “Detection was allowed to proceed for 2 h at room temperature, and the assay plates were read on the EnVision® 2104 plate reader.” left out
Data are expressed as IC50 (μM).

KDM3B, sequence (Q7LBC6 whole entry, species assumed): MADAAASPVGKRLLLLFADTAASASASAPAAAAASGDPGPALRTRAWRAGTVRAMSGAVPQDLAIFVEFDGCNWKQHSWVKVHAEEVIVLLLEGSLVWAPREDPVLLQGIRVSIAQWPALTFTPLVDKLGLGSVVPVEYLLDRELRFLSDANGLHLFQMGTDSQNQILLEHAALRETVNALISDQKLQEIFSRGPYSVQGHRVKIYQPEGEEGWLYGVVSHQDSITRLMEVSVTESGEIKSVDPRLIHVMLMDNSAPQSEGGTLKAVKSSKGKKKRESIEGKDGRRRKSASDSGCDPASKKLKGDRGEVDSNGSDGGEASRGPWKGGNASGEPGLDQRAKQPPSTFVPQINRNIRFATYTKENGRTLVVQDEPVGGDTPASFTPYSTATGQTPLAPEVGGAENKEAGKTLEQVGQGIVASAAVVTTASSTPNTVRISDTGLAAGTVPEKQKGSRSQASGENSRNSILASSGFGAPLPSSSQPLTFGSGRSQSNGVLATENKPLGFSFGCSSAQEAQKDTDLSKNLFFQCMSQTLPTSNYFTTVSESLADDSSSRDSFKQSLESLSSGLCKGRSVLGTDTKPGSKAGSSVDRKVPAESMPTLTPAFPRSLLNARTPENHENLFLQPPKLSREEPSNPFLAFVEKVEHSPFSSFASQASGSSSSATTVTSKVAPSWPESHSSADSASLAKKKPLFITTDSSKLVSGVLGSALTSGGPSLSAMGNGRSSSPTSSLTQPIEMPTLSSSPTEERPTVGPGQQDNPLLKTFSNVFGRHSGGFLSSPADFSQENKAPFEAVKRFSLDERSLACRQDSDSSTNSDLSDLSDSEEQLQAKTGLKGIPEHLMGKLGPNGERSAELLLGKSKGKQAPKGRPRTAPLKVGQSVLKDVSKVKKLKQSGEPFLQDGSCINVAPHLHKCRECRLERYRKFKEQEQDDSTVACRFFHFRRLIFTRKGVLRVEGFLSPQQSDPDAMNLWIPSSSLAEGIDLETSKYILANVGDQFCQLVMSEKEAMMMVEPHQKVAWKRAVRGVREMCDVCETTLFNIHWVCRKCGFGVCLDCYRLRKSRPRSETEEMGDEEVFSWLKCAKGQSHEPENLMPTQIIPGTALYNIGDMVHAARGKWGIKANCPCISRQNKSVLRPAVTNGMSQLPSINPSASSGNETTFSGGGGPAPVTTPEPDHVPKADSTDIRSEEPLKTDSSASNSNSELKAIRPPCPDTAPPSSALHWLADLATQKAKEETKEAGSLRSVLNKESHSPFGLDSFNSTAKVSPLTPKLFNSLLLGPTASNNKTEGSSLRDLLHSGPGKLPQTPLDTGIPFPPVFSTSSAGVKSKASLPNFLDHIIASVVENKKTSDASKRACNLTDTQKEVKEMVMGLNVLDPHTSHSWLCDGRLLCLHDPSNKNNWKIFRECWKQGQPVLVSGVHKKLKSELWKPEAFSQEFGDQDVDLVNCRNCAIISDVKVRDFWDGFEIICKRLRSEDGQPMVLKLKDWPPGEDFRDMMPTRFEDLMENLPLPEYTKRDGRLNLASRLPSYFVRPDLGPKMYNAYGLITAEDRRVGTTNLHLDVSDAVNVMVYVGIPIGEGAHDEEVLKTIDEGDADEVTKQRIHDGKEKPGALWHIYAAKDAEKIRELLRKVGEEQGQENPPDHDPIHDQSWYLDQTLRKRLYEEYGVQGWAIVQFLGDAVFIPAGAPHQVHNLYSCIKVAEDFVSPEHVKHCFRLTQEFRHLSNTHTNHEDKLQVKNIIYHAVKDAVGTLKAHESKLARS

In the case of CN(C)c1ccc(CNc2ccc(F)cc2C(=O)N2CCN(Cc3ccc(N(C)C)cc3)CC2)cc1 [Compound 5, (2-((4-(dimethylamino)benzyl)amino)-5-fluorophenyl)(4-(4-(dimethylamino)benzyl)piperazin-1-yl)methanone], the “KDM3A inhibition, verdict in words on Table 2” value (KDM3A) was “potent KDM3A inhibitors” and the pIC50 (KDM3A) was 5.12.

With CN(C)c1ccc(-c2ccc(OC3CCN(C(=O)c4cn(S(=O)(=O)c5ccccc5)c5ccccc45)CC3)nc2)cc1 [Compound 11] the “KDM3A inhibition, verdict in words on Table 2” value (KDM3A) was “potent KDM3A inhibitors” and the pIC50 (KDM3A) was 4.47.

For CN(C)c1ccc(CCNC(=O)CCC(=O)N2CCC(Oc3ccc(C(F)(F)F)cn3)CC2)cc1 [JADA69, N-(4-(dimethylamino)phenethyl)-4-oxo-4-(4-((5-(trifluoromethyl)pyridin-2-yl)oxy)piperidin-1-yl)butanamide], the pIC50 (KDM3B; ASSAY 1) was 4.55.

Compound CN(C)c1ccc(CCNC(=O)CCC(=O)N2CCC(Oc3cc(-c4ccc(N(C)C)cc4)ccn3)CC2)cc1 [JADA84, N-(4-(dimethylamino)phenethyl)-4-(4-((4-(4-(dimethylamino)phenyl)pyridin-2-yl)oxy)piperidin-1-yl)-4-oxobutanamide] has a pIC50 (KDM3B; ASSAY 1) of 4.28.

With CN(C)c1ccc(CCNC(=O)CCC(=O)N2CCC(Oc3ccc(-c4ccc(N(C)C)cc4)cn3)CC2)cc1 [JADA92, N-(4-(dimethylamino)phenethyl)-4-(4-((5-(4-(dimethylamino)phenyl)pyridin-2-yl)oxy)piperidin-1-yl)-4-oxobutanamide] the pIC50 (KDM3B; ASSAY 1) was 5.06, the pIC50 (KDM3B; ASSAY 2) was 4.86 and the pIC50 (KDM3B; ASSAY 7) was 5.01.

CN(C)c1ccc(CCCNC(=O)c2ccccc2C(=O)N2CCC(Oc3ccc(Br)cn3)CC2)cc1 [JADA133] was tested, and the pIC50 (KDM3B; ASSAY 3) was 4.73.

CN(C)c1ccc(-c2ccc(OC3CCN(C(=O)c4ccccc4OC(=O)c4ccccc4O)CC3)nc2)cc1 [JADA196, 2-(4-((5-(4-(dimethylamino)phenyl)pyridin-2-yl)oxy)piperidine-1-carbonyl)phenyl 2-hydroxybenzoate] gave a pIC50 (KDM3A) of 4.80.

In the case of CN(C)c1ccc(CCC(=O)Nc2ccc(F)cc2C(=O)N2CCC(Oc3ccc(-c4ccc(N(C)C)cc4)cn3)CC2)cc1 [KDM3-23, 3-(4-(dimethylamino)phenyl)-N-(2-(4-((5-(4-(dimethylamino)phenyl)pyridin-2-yl)oxy)piperidine-1-carbonyl)-4-fluorophenyl)propanamide], the “KDM3B inhibition, verdict in words on Table 1” value (KDM3B) was “potent KDM3B inhibitors” and the pIC50 (KDM3B; ASSAY 5) was 5.32.

Work on CN(C)c1ccc(CCC(=O)Nc2ccc(F)cc2C(=O)N2CCC(Oc3ccc(-c4ccc(CN5CCOCC5)cc4)cn3)CC2)cc1 [KDM3-24] yielded a pIC50 (KDM3B; ASSAY 5) of 4.96.

CN(C)c1ccc(CCC(=O)Nc2ccc(F)cc2C(=O)N2CCC(Oc3cc(N4CCOCC4)ccn3)CC2)cc1 [KDM3-26, 3-(4-(dimethylamino)phenyl)-N-(4-fluoro-2-(4-((4-morpholinopyridin-2-yl)oxy)piperidine-1-carbonyl)phenyl)propanamide] gave a pIC50 (KDM3B; ASSAY 6) of 4.13.

CN(C)c1ccc(CCC(=O)Nc2ccc(F)cc2C(=O)N2CCC(Oc3cc(N4CCCCC4)ccn3)CC2)cc1 [KDM3-27, 3-(4-(dimethylamino)phenyl)-N-(4-fluoro-2-(4-((4-(piperidin-1-yl)pyridin-2-yl)oxy)piperidine-1-carbonyl)phenyl)propanamide] gave a pIC50 (KDM3B; ASSAY 6) of 4.95.

With CCOC(=O)c1ccc(N)c(C(=O)N2CCC(Oc3cc(-c4ccc(N(C)C)cc4)ccn3)CC2)c1 [KDM3-31, ethyl 4-amino-3-(4-((4-(4-(dimethylamino)phenyl)pyridin-2-yl)oxy)piperidine-1-carbonyl)benzoate] the pIC50 (KDM3B; ASSAY 6) was 5.03, the pIC50 (KDM3B; ASSAY 7) was 5.08 and the pIC50 (KDM3B; ASSAY 8) was 4.97.

CN(C)c1ccc(CCNC(=O)/C=C\C(=O)N2CCC(Oc3ccc(-c4ccc(N(C)C)cc4)cn3)CC2)cc1 [KDM3-38, (Z)-N-(4-(dimethylamino)phenethyl)-4-(4-((5-(4-(dimethylamino)phenyl)pyridin-2-yl)oxy)piperidin-1-yl)-4-oxobut-2-enamide] was tested, and the pIC50 (KDM3B; ASSAY 7) was 5.25.

For CN(C)c1ccc(-c2ccc(OC3CCN(C(=O)c4ccccc4[N+](=O)[O-])CC3)nc2)cc1 [KDM3-39, (4-((5-(4-(dimethylamino)phenyl)pyridin-2-yl)oxy)piperidin-1-yl)(2-nitrophenyl)methanone], the pIC50 (KDM3B; ASSAY 7) was 4.96 and the pIC50 (KDM3B; ASSAY 8) was 4.72.

In the case of CC(=O)Nc1ccc(C(=O)N2CCC(Oc3ccc(-c4ccc(N(C)C)cc4)cn3)CC2)c(N)c1 [KDM3-40, N-(3-amino-4-(4-((5-(4-(dimethylamino)phenyl)pyridin-2-yl)oxy)piperidine-1-carbonyl)phenyl)acetamide], the pIC50 (KDM3B; ASSAY 8) was 4.65.

CN(C)c1ccc(-c2ccc(OC3CCN(C(=O)c4cc(C(=O)O)ccc4N)CC3)nc2)cc1 [KDM3-41, 4-amino-3-(4-((5-(4-(dimethylamino)phenyl)pyridin-2-yl)oxy)piperidine-1-carbonyl)benzoic acid] showed a pIC50 (KDM3B; ASSAY 8) of 4.31.

With CN(C)c1ccc(-c2ccc(OC3CN(C(=O)c4ccccc4[N+](=O)[O-])C3)nc2)cc1 [KDM3-42, (3-((5-(4-(dimethylamino)phenyl)pyridin-2-yl)oxy)azetidin-1-yl)(2-nitrophenyl)methanone] the pIC50 (KDM3B; ASSAY 8) was 4.93.

For CN(C)c1ccc(-c2ccnc(OC3CCN(C(=O)c4cc(C(=O)O)ccc4N)CC3)c2)cc1 [KDM3-43, 4-amino-3-(4-((4-(4-(dimethylamino)phenyl)pyridin-2-yl)oxy)piperidine-1-carbonyl)benzoic acid], the pIC50 (KDM3B; ASSAY 8) was 4.21.

Work on CN(C)c1ccc(CNC(=O)/C=C\C(=O)N2CCC(Oc3ccc(-c4ccc(N(C)C)cc4)cn3)CC2)cc1 [KDM3-47, (Z)-N-(4-(dimethylamino)benzyl)-4-(4-((5-(4-(dimethylamino)phenyl)pyridin-2-yl)oxy)piperidin-1-yl)-4-oxobut-2-enamide] yielded a pIC50 (KDM3A) of 4.89.

CN(C)c1ccc(CCC(=O)Nc2cc(F)ccc2C(=O)N2CCC(Oc3ccc(-c4ccc(N(C)C)cc4)cn3)CC2)cc1 [KDM3-51, 3-(4-(dimethylamino)phenyl)-N-(2-(4-((5-(4-(dimethylamino)phenyl)pyridin-2-yl)oxy)piperidine-1-carbonyl)-5-fluorophenyl)propanamide] showed a pIC50 (KDM3A) of 4.85.
